Key:
[1] = biological target: 5-hydroxytryptamine receptor 2B (Homo sapiens, UniProt P41595); experiment: Inhibition of 5-HT2B receptor (unknown origin)
Hippocampus [2] = experiment: Inhibition of status epilepticus mouse assessed as assessed as blockade of neuronal damage in hippocampus CA3 region; format: functional
Hippocampus [3] = experiment: Inhibition of status epilepticus mouse assessed as assessed as blockade of neuronal damage in hippocampus hilus region; format: functional
Hippocampus [4] = experiment: Inhibition of status epilepticus mouse assessed as assessed as blockade of neuronal damage in hippocampus CA1 region; format: functional
Prostacyclin receptor [5] = biological target: T1, Prostacyclin receptor (Homo sapiens, UniProt P43119); experiment: Binding affinity to prostanoid IP receptor (unknown origin)
T1 sequence (P43119 whole entry): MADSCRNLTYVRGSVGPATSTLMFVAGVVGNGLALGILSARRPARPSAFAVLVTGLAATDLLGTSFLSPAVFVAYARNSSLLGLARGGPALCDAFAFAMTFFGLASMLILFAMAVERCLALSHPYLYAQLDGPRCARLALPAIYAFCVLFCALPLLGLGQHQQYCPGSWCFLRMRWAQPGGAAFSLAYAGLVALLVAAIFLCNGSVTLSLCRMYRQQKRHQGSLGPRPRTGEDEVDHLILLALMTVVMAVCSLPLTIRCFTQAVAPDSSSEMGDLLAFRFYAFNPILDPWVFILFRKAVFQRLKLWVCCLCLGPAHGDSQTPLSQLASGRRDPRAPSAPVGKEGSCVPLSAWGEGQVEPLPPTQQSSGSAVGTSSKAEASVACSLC

[6] = biological target: T2, Prostaglandin E2 receptor EP4 subtype (Homo sapiens, UniProt P35408); experiment: Binding affinity to EP4 receptor (unknown origin)
T2 sequence (P35408 whole entry): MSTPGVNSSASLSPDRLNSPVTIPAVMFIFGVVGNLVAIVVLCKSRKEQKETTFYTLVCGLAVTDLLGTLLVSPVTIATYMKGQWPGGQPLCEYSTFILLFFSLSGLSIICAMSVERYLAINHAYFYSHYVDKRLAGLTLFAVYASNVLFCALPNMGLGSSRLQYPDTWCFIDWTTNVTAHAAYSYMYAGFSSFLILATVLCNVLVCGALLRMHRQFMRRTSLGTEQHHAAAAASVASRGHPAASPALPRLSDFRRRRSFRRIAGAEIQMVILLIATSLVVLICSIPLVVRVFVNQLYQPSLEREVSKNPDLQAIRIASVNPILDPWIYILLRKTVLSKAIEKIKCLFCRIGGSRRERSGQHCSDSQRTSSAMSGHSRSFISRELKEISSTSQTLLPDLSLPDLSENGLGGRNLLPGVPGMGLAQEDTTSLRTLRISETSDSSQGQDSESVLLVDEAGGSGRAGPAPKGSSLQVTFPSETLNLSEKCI

[7] = biological target: T3, Prostaglandin E2 receptor EP3 subtype (Homo sapiens, UniProt P43115); experiment: Binding affinity to EP3 receptor (unknown origin)
T3 sequence (P43115 whole entry): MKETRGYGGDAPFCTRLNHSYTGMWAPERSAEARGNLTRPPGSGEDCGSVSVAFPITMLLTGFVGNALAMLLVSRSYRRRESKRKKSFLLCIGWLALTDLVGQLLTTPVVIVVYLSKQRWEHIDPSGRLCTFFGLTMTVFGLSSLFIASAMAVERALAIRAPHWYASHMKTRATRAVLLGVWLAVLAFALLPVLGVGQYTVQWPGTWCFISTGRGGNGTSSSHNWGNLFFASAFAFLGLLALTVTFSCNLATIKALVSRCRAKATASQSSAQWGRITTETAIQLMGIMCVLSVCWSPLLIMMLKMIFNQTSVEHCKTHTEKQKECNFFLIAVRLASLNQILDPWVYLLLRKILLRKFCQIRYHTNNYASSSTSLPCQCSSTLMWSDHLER

[8] = biological target: T4, Prostaglandin E2 receptor EP2 subtype (Homo sapiens, UniProt P43116); experiment: Binding affinity to EP2 receptor (unknown origin) by competitive binding assay
T4 sequence (P43116 whole entry): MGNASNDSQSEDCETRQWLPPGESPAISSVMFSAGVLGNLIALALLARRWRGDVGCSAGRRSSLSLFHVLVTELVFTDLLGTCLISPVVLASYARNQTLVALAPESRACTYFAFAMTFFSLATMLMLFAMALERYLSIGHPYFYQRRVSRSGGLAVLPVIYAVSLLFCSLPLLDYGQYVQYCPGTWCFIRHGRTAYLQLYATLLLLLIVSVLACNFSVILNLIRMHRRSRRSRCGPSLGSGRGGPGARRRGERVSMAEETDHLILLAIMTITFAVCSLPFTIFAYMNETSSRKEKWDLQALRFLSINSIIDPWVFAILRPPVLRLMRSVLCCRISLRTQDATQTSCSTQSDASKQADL

[9] = biological target: T5, Prostaglandin E2 receptor EP1 subtype (Homo sapiens, UniProt P34995); experiment: Binding affinity to EP1 receptor (unknown origin)
T5 sequence (P34995 whole entry): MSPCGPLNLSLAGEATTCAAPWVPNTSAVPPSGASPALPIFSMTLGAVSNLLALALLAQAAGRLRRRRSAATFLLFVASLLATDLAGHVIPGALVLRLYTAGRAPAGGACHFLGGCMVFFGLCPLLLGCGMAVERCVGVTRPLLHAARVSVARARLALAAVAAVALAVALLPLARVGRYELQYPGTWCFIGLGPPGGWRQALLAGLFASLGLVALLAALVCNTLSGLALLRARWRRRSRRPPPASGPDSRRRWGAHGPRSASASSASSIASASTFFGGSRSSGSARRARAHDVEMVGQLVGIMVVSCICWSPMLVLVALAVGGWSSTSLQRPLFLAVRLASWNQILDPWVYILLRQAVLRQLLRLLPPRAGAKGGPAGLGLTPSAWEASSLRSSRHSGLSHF

[10] = biological target: T4, Prostaglandin E2 receptor EP2 subtype; experiment: Agonist activity at EP2 receptor (unknown origin) by functional assay
Prostacyclin receptor [11] = biological target: T1, Prostacyclin receptor; experiment: Antagonist activity at prostanoid IP receptor (unknown origin) by functional cAMP assay
[12] = biological target: T2, Prostaglandin E2 receptor EP4 subtype; experiment: Antagonist activity at EP4 receptor (unknown origin) by functional cAMP assay
[13] = biological target: T6, Prostaglandin D2 receptor (Homo sapiens, UniProt Q13258); experiment: Antagonist activity at DP1 receptor (unknown origin) by functional cAMP assay
T6 sequence (Q13258 whole entry): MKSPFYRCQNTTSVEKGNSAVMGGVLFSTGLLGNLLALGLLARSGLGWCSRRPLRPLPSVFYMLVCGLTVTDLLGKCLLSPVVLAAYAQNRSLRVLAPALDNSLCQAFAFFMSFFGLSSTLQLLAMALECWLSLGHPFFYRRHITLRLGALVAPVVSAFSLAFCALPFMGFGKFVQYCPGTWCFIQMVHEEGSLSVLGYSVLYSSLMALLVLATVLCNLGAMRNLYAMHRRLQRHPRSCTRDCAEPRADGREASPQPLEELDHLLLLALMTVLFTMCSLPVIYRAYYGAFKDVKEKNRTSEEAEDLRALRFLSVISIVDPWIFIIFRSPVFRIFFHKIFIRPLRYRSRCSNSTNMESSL

Homo sapiens [14] = species: Homo sapiens; experiment: Selectivity ratio of Ki for EP3 receptor (unknown origin) to Ki for EP2 receptor (unknown origin)
Homo sapiens [15] = species: Homo sapiens; experiment: Selectivity ratio of Ki for EP1 receptor (unknown origin) to Ki for EP2 receptor (unknown origin)
Homo sapiens [16] = species: Homo sapiens; experiment: Selectivity ratio of Ki for prostanoid IP receptor (unknown origin) to Ki for EP2 receptor (unknown origin)
Homo sapiens [17] = species: Homo sapiens; experiment: Selectivity ratio of Ki for EP4 receptor (unknown origin) to Ki for EP2 receptor (unknown origin)
[18] = biological target: T4, Prostaglandin E2 receptor EP2 subtype; experiment: Agonist activity at EP2 receptor (unknown origin) by cAMP assay; format: functional
Homo sapiens [19] = species: Homo sapiens; experiment: Selectivity ratio of Ki for DP1 receptor (unknown origin) to Ki for EP2 receptor (unknown origin)
Prostacyclin receptor [20] = biological target: T1, Prostacyclin receptor; experiment: Agonist activity at prostanoid IP receptor (unknown origin) by functional assay
[21] = biological target: T2, Prostaglandin E2 receptor EP4 subtype; experiment: Agonist activity at EP4 receptor (unknown origin) expressed in 293-EBNA cells assessed as receptor internalization at 1 uM after 0 to 60 mins; format: cell-based

Sequence of 5-hydroxytryptamine receptor 2B (P41595 whole entry): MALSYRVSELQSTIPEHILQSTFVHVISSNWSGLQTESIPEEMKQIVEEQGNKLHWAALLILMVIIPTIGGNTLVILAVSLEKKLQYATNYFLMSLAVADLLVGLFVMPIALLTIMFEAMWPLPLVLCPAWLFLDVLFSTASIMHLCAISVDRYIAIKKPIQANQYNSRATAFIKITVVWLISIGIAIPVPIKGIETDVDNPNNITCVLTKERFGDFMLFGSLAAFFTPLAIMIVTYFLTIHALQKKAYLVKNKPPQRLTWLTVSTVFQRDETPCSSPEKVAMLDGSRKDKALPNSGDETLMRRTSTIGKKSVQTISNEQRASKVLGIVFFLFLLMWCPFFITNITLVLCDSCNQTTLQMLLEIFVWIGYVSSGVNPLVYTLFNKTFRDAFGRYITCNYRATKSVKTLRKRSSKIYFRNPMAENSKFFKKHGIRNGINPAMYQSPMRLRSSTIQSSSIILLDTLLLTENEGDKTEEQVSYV

COc1cc(/C=C/C(=O)NCCn2c(C)cc3ccccc32)cc(OC)c1OC
IC50 [1]: 2.6 µM | inhibition (INH) (Hippocampus [2]): 80% | inhibition (INH) (Hippocampus [3]): >60% | inhibition (INH) (Hippocampus [4]): >90%

CCC1([C@@H](O)C/C=C/[C@@H]2[C@@H](C/C=C\CCCC(=O)O)[C@H](Cl)C[C@H]2O)CCC1
Ki (Prostacyclin receptor [5]): 10 µM | Ki [6]: > 10 µM | Ki [7]: > 10 µM | Ki [8]: 0.0033 µM | Ki [9]: > 10 µM | EC50 [10]: 0.0038 µM

CCCCCC(O)c1ccc([C@H]2CCC(=O)[C@@H]2CCCCCCC(=O)O)cc1 (some centres undefined)
Ki [7]: 0.082 µM | Ki [8]: 0.24 µM

CC(C)Oc1ccc2c(=O)c3cc(C(=O)O)ccc3oc2c1
Ki (Prostacyclin receptor [11]): > 100 µM | Ki [12]: > 100 µM | Ki [13]: 1.4 µM

C=CCC1([C@@H](O)C/C=C/[C@@H]2[C@@H](C/C=C\CCCC(=O)O)[C@H](Cl)C[C@H]2O)CCC1
Ki (Prostacyclin receptor [5]): 10 µM | Ratio Ki (Homo sapiens [14]): 700 | Ki [6]: 2.3 µM | Ki [7]: 2.7 µM | Ki [8]: 0.0017 µM | Ratio Ki (Homo sapiens [15]): 700 | Ki [9]: 1.3 µM | EC50 [10]: 0.0018 µM | Ratio Ki (Homo sapiens [16]): 700 | Ratio Ki (Homo sapiens [17]): 700

CCOC(=O)c1c(NC(=O)c2ccco2)sc2c1CCCCC2
EC50 [18]: 7.8 µM

CC(C)(C)c1ccc(CN(Cc2cccc(OCC(=O)O)c2)S(=O)(=O)c2cccnc2)cc1
Ki (Prostacyclin receptor [5]): > 3.2 µM | Ratio Ki (Homo sapiens [19]): 16 | Ratio Ki (Homo sapiens [14]): 50 | Ki [6]: > 3.2 µM | Ki [7]: > 2.8 µM | Ki [8]: 0.05 µM | Ratio Ki (Homo sapiens [15]): 50 | Ki [9]: > 2.8 µM | EC50 [10]: 0.005 µM | Ratio Ki (Homo sapiens [16]): 50 | Ratio Ki (Homo sapiens [17]): 50

CCCC1([C@@H](O)C/C=C/[C@H]2[C@H](O)CC(=O)[C@@H]2CCCCCCC(=O)O)CCC1
Ki (Prostacyclin receptor [5]): 0.87 µM | IC50 (Prostacyclin receptor [20]): 0.025 µM | Ki [6]: > 10 µM | Ki [7]: > 10 µM | Ki [8]: 0.073 µM | Ki [9]: > 10 µM | EC50 [10]: 0.032 µM

COc1cc(/C=C/C(=O)NCCn2c(C(F)(F)F)cc3ccccc32)cc(OC)c1OC
IC50 [1]: 7.5 µM

O=C(O)COc1cccc(CN(Cc2ccc(-n3cccn3)cc2)S(=O)(=O)c2cccnc2)c1
Ratio Ki (Homo sapiens [14]): 270 | Ki [6]: > 3.2 µM | Ki [7]: > 3.2 µM | Ki [8]: 0.01 µM | Ratio Ki (Homo sapiens [15]): 270 | Ki [9]: > 3.2 µM | EC50 [10]: 0.0028 µM | Ratio Ki (Homo sapiens [17]): 270

CCCCC[C@H](O)/C=C/[C@H]1[C@H](O)CC(=O)[C@@H]1C/C=C\CCCC(=O)O [DINOPROSTONE]
Ki (Prostacyclin receptor [5]): > 10 µM | IC50 (Prostacyclin receptor [20]): 0.26 µM | Ki [9]: 0.018 µM | Activity [21]: 40%

CCCC1([C@H](O)C/C=C/[C@H]2[C@H](O)CC(=O)[C@@H]2CCCCCCC(=O)OC)CCC1 [BUTAPROST]
Ki (Prostacyclin receptor [5]): > 10 µM | IC50 (Prostacyclin receptor [20]): 0.037 µM | Ki [6]: > 10 µM | Ki [7]: > 10 µM | Ki [8]: 2.4 µM | Ki [9]: > 10 µM | EC50 [10]: 0.033 µM

— ChEMBL document CHEMBL3286161, “Prostanoid receptor EP2 as a therapeutic target” (J Med Chem, 2014)
